Test results published in patent publication US8530468B2 (Cancer Research Technology Limited, priority 2008, dated 2013).

Columns and labels:
[1] = system: HT29 colon carcinoma cells; test: Cytotoxicity assay (SRB); type: cell-based; conditions: Homo sapiens, HT-29, 96 hours, read-out: SRB IC50 (concentration required to inhibit growth by 50%)
CHK1 = target: T1, CHK1 (Homo sapiens, UniProt O14757); test: CHK1 kinase function inhibition (DELFIA assay, phosphorylation of CDC25C peptide); type: biochemical; conditions: CHK1 1 nM, ATP 30 μM, 30 minutes at room temperature
T1 sequence (O14757 1-476): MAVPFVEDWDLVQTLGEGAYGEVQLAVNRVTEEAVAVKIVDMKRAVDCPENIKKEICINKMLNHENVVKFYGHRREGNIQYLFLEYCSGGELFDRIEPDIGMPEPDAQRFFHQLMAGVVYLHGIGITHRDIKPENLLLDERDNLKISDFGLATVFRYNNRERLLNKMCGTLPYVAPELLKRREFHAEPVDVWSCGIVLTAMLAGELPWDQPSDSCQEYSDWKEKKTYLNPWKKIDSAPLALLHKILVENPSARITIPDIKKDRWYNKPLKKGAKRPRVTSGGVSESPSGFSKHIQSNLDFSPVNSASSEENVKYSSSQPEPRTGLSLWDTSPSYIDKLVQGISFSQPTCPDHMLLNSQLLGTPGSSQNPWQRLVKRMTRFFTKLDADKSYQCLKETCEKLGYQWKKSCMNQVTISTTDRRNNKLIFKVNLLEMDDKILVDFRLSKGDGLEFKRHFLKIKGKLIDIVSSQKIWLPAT

HT29 cells = test: Mitosis inhibition assay (MIA), checkpoint abrogation after etoposide; type: cell-based; conditions: Homo sapiens, HT-29, etoposide 50 μM 1 hour, then compound with nocodazole 100 ng/mL, 21 hours, read-out: MIA IC50 (concentration required to allow 50% of cells to enter mitosis)

**Q.** Which IC50 [1] does the source give for `Cc1cccc2cc(Nc3cnc(C#N)c(OC(C)CN(C)C)n3)ncc12` (stereo not drawn) [AA-025] here?
**A.** ≤ 10 µM

**Q.** What about the IC50 (CHK1) of the same compound?
**A.** ≤ 1 µM

**Q.** And the IC50 (HT29 cells)?
**A.** ≤ 10 µM

**Q.** With `COCCNc1cccc2cc(Nc3cnc(C#N)c(O[C@@H]4CCNC4)n3)ncc12` [AA-037] as the compound, how does the IC50 [1] read?
**A.** ≤ 10 µM

**Q.** And the IC50 (CHK1)?
**A.** ≤ 1 µM

**Q.** And the IC50 (HT29 cells)?
**A.** ≤ 10 µM

**Q.** How did the IC50 [1] turn out when `CC(CN(C)C)Oc1nc(Nc2cc3cccc(Br)c3cn2)cnc1C#N` (stereo not drawn) [AA-026] was run?
**A.** ≤ 10 µM

**Q.** And the IC50 (CHK1)?
**A.** ≤ 1 µM

**Q.** What about the IC50 (HT29 cells) of the same compound?
**A.** ≤ 10 µM

**Q.** For `N#Cc1cnc(Nc2cc3cccc(NCCN4CCOCC4)c3cn2)cn1` [AA-020, 5-(8-(2-morpholinoethylamino)isoquinolin-3-ylamino)pyrazine-2-carbonitrile], which IC50 [1] is on record?
**A.** ≤ 10 µM

**Q.** What about the IC50 (CHK1) of the same compound?
**A.** ≤ 1 µM

**Q.** What about the IC50 (HT29 cells) of the same compound?
**A.** ≤ 10 µM

**Q.** Which results are given for `N#Cc1cnc(Nc2cc3cccc(NCCO)c3cn2)cn1` [AA-031, 5-(8-(2-Hydroxyethylamino)isoquinolin-3-ylamino)pyrazine-2-carbonitrile]?
**A.** IC50 [1]: ≤ 10 µM; IC50 (CHK1): ≤ 1 µM; IC50 (HT29 cells): ≤ 10 µM

**Q.** For `N#Cc1ncc(Nc2cc3cccc(Br)c3cn2)nc1O[C@@H]1CCNC1` [AA-052], which IC50 [1] is on record?
**A.** ≤ 10 µM

**Q.** What about the IC50 (CHK1) of the same compound?
**A.** ≤ 1 µM

**Q.** And the IC50 (HT29 cells)?
**A.** ≤ 10 µM

**Q.** How did the IC50 [1] turn out when `N#Cc1ncc(Nc2cc3cccc(NCCO)c3cn2)nc1O[C@@H]1CCNC1` [AA-044] was run?
**A.** ≤ 10 µM

**Q.** What about the IC50 (CHK1) of the same compound?
**A.** ≤ 1 µM

**Q.** And the IC50 (HT29 cells)?
**A.** ≤ 10 µM

**Q.** `N#Cc1ncc(Nc2cc3cccc(C(F)(F)F)c3cn2)nc1O[C@@H]1CCNC1` [AA-055] was tested. Which IC50 [1] did it give?
**A.** ≤ 10 µM

**Q.** What about the IC50 (CHK1) of the same compound?
**A.** ≤ 1 µM

**Q.** What about the IC50 (HT29 cells) of the same compound?
**A.** ≤ 10 µM

**Q.** With `N#Cc1ncc(Nc2cc3ccccc3cn2)nc1O[C@@H]1CCNC1` [AA-050] as the compound, how does the IC50 [1] read?
**A.** ≤ 10 µM

**Q.** And the IC50 (CHK1)?
**A.** ≤ 1 µM

**Q.** And the IC50 (HT29 cells)?
**A.** ≤ 10 µM

**Q.** For `COCCCNc1cccc2cc(Nc3cnc(C#N)c(O[C@H](C)CN(C)C)n3)ncc12` [AA-038], which IC50 [1] is on record?
**A.** ≤ 10 µM

**Q.** And the IC50 (CHK1)?
**A.** ≤ 1 µM

**Q.** And the IC50 (HT29 cells)?
**A.** ≤ 10 µM

**Q.** With `CN1CCC(COc2nc(Nc3cc4cccc(Cl)c4cn3)cnc2C#N)CC1` [AA-014] as the compound, how does the IC50 [1] read?
**A.** ≤ 10 µM

**Q.** What about the IC50 (CHK1) of the same compound?
**A.** ≤ 1 µM

**Q.** What about the IC50 (HT29 cells) of the same compound?
**A.** ≤ 10 µM

**Q.** With `Cc1cccc2cc(Nc3cnc(C#N)c(O[C@@H]4CCNC4)n3)ncc12` [AA-058] as the compound, how does the IC50 [1] read?
**A.** ≤ 10 µM

**Q.** What about the IC50 (CHK1) of the same compound?
**A.** ≤ 1 µM

**Q.** What about the IC50 (HT29 cells) of the same compound?
**A.** ≤ 10 µM

**Q.** `N#Cc1cnc(Nc2cc3cccc(NCCCO)c3cn2)cn1` [AA-033] was tested. Which IC50 [1] did it give?
**A.** ≤ 10 µM

**Q.** What about the IC50 (CHK1) of the same compound?
**A.** ≤ 1 µM

**Q.** And the IC50 (HT29 cells)?
**A.** ≤ 10 µM

**Q.** Which results are given for `CNc1cccc2cc(Nc3cnc(C#N)c(OC(C)CN(C)C)n3)ncc12` (stereo not drawn) [AA-060]?
**A.** IC50 [1]: ≤ 10 µM; IC50 (CHK1): ≤ 1 µM; IC50 (HT29 cells): ≤ 10 µM

**Q.** For `CC(CN(C)C)Oc1nc(Nc2cc3cccc(NCCO)c3cn2)cnc1C#N` (stereo not drawn) [AA-032], which IC50 [1] is on record?
**A.** ≤ 10 µM

**Q.** And the IC50 (CHK1)?
**A.** ≤ 1 µM

**Q.** What about the IC50 (HT29 cells) of the same compound?
**A.** ≤ 10 µM

**Q.** Which results are given for `Cc1cccc2cc(Nc3cnc(C#N)c(O[C@H](C)CN(C)C)n3)ncc12` [AA-057]?
**A.** IC50 [1]: ≤ 10 µM; IC50 (CHK1): ≤ 1 µM; IC50 (HT29 cells): ≤ 10 µM

**Q.** `C[C@H](CN(C)C)Oc1nc(Nc2cc3cccc(NCCCO)c3cn2)cnc1C#N` [AA-041] was tested. Which IC50 [1] did it give?
**A.** ≤ 10 µM

**Q.** And the IC50 (CHK1)?
**A.** ≤ 1 µM

**Q.** What about the IC50 (HT29 cells) of the same compound?
**A.** ≤ 10 µM

**Q.** For `COc1cccc2cc(Nc3cnc(C#N)c(O[C@H](C)CN(C)C)n3)ncc12` [AA-067, (R)-3-(1-(Dimethylamino)propan-2-yloxy)-5-(8-methoxyisoquinolin-3-ylamino)pyrazine-2-carbonitrile], which IC50 [1] is on record?
**A.** ≤ 10 µM

**Q.** What about the IC50 (CHK1) of the same compound?
**A.** ≤ 1 µM

**Q.** What about the IC50 (HT29 cells) of the same compound?
**A.** ≤ 10 µM
